Measurements as given in patent US10364256B2 (GlaxoSmithKline Intellectual Property Development Limited, priority 2015, dated 2019).
Where two headings read alike, the source gives them in different places.

Columns and labels:
[1] = molecular target: T1, Keap1 Kelch domain (321-609) / TAMRA-labeled 16mer NRF2 peptide (ETGE motif) (Homo sapiens, UniProt Q14145); assay: NRF2-Keap1 FP Assay (Keap1 Kelch fluorescence polarization); type: binding; conditions: 20 nM Keap1 (321-609), 8 nM Tamra labeled peptide
T1 construct: the Kelch domain (321-609) of Keap1 is used
T1 sequence (Q14145 321-609): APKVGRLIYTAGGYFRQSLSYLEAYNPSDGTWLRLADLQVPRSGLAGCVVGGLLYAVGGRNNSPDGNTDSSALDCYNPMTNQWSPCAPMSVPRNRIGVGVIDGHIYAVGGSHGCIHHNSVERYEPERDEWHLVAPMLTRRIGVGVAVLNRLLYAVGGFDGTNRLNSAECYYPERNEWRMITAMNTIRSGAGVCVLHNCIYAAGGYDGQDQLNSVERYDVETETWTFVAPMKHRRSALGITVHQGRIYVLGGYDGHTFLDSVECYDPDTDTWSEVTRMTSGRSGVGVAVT
Description: One model for the NRF2-Keap1 interaction is through two binding sites in the Neh2 domain on NRF2. The two sites are referred to as the DLG binding motif (latch domain, uM affinity) and the ETGE binding motif (hinge domain, nM affinity). The Keap1 protein consists of an N-terminal region (NTR), a broad complex, tramtrack, and brick a′ brac domain (BTB), an intervening region (IVR), a double glycine repeat domain (DGR or Kelch), and a C-terminal region. The DLG and ETGE motifs of NRF2's Neh2 domain bind to the Kelch domain of Keap1 at different affinities. In the Keap1 Kelch fluorescence polarization (FP) assay, a TAMRA-labeled 16mer peptide (AFFAQLQLDEETGEFL) containing the ETGE motif of NRF2 and the Kelch domain (321-609) of Keap1 is used. The assay determines if a compound interferes with the binding between Keap1 […] and the TAMRA-labeled peptide. Binding of TAMRA-labeled NRF2 peptide to Keap1 (321-609) results in a high FP signal. If a compound interferes with the binding between the peptide and the protein, it will cause the assay signal to decrease. Thus, assay signal is inversely proportional to binding inhibition.
100 nl of 100× compound dose response curves (serial 3-fold dilutions) in DMSO are stamped using an Echo liquid handling system (Labcyte) into 384-well low volume black assay plates (Greiner, #784076), with DMSO in columns 6 and 18. The top concentration of compound is located in columns 1 and 13. Keap1 (321-609) is diluted to 40 nM (2×) in 1× assay buffer (50 mM Tris, pH 8.0, 100 mM NaCl, 5 mM MgCl2, 1 mM DTT, 2 mM CHAPS, and 0.005% BSA) and 5 ul is added using a Multidrop Combi (Thermo Electron Corporation) equipped with a metal tip dispenser to all wells of the compound plate, except column 18. Column 18 receives only 5 ul of assay buffer. Immediately, 5 uL of 16 nM (2×) of Tamra labeled peptide (AFFAQLQLDEETGEFL, 21st Century Biochemicals) is added to all wells of the plate. The plates are spun at 500 rpm for 1 min, incubated for 1 hr at room temperature, and read on an Analyst GT (Molecular Devices) equipped with excitation (530/25 nm) and emission (580/10 nm) filters designed for Tamra probes. A 561 nm dichroic mirror is also used in the Analyst. The final assay concentrations of Keap1 (321-609) and Tamra labeled peptide are 20 nM and 8 nM, respectively. Fluorescence measurements, represented as mP, are used in the transformation of the data. Compound activity is calculated based on percent inhibition, normalized against controls in the assay (Control 1 contains the Tamra peptide and Keap1 (321-609) together (0% response) and control 2 contains the Tamra peptide alone (100% response)). Data analysis is handled using the software package Abase XE (Surrey, United Kingdom. The % inhibition values are calculated by the equation: 100−(100*((compound response−average control 2)/(average control 1−average control2))). For calculation of pIC50s, Abase XE uses a four parameter equation. pIC50 is the negative log of the IC50.

[2] = system: NQO1 specific enzyme activity in BEAS-2B cells (marker for NRF2 activation); assay: BEAS-2B NQO1 MTT Assay; type: cell-based; conditions: compound incubated 48 hours, read-out: EC50 (NQO1 specific enzyme activity induction)
Description: BEAS-2B NQO1 MTT Assay NAD(P)H:quinone oxidoreductase 1 (NQO1), also called DT diaphorase, is a homodimeric FAD-containing enzyme that catalyzes obligatory NAD(P)H-dependent two-electron reductions of quinones and protects cells against the toxic and neoplastic effects of free radicals and reactive oxygen species arising from one-electron reductions. The transcription of NQO1 is finely regulated by NRF2, and thus NQO1 activity is a good marker for NRF2 activation. On day one, frozen BEAS-2B cells (ATCC) are thawed in a water bath, counted, and re-suspended at a concentration of 250,000 cells/mL. Fifty microliters of cells are plated in 384 well black clear-bottomed plates. Plates are incubated at 37° C., 5% CO2 overnight. On day two, plates are centrifuged and 50 nL of compound or controls are added to the cells. Plates are then incubated at 37° C., 5% CO2 for 48 hours. On day four, medium is aspirated from the plate and crude cell lysates are made by adding 13 uL of 1× Cell Signaling Technologies lysis buffer with 1 Complete, Mini, EDTA-free Protease Inhibitor Tablet (Roche) for each 10 mL of lysis buffer. After lysis plates are incubated for 20 minutes at room temperature. Two microliters of lysate are removed for use in Cell Titer Glo assay (Promega) and MTT cocktail is prepared (Prochaska et. al. 1998) for measurement of NQO1 activity. Fifty microliters of MTT cocktail is added to each well, plate is centrifuged, and analyzed on an Envision plate reader (Perkin Elmer) using Absorbance 570 nm label for 30 minutes. Product formation is measured kinetically and the pEC50 of NQO1 specific activity induction is calculated by plotting the change in absorbance (Delta OD/min) versus the log of compound concentration followed by 3-parameter fitting. pEC50 is the negative log of the EC50.

[3] = molecular target: T2, full length Keap1 protein / full length NRF2 protein (Homo sapiens, UniProt Q14145); assay: NRF2-Keap1 TR-FRET Low Protein Assay; type: binding; conditions: 1.25 nM Keap1 FlagHis and 2.5 nM biotin-NRF2 added
T2 construct: full length NRF2 protein and full length Keap1 protein (Keap1 exists a dimer) are used; His
T2 sequence (Q14145 whole entry): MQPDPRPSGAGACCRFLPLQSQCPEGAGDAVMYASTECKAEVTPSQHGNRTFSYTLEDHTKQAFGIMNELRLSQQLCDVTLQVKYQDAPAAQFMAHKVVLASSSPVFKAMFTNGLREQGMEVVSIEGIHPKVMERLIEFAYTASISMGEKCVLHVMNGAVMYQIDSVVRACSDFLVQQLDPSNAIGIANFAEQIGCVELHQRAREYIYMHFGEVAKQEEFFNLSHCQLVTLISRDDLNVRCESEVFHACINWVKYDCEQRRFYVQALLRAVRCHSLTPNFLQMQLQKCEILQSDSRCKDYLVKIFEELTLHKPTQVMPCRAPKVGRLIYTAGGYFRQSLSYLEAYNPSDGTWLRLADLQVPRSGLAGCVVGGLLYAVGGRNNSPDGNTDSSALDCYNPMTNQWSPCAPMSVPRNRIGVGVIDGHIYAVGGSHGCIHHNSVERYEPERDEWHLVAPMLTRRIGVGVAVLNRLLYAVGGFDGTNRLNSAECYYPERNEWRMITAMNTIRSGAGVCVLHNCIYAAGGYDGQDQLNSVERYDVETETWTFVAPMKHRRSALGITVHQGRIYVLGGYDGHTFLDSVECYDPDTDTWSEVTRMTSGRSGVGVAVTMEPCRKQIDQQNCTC
Description: NRF2-Keap1 TR-FRET Low Protein Assay In the NRF2-Keap1 TR-FRET (time-resolved fluorescence resonance energy transfer) low protein assay, full length NRF2 protein and full length Keap1 protein (Keap1 exists a dimer) are used. The assay detects a compound's ability to displace the binding of Keap1 […] with biotinylated Avi-NRF2 protein. Biotin-NRF2 binds to streptavidin-europium (a component of the detection mix) and Keap1 […] is recognized by anti-Flag APC (allophycocyanin) antibody (also a component of the detection mix). If binding occurs between the two proteins, there will be an energy transfer from the Eu+3 (donor) at 615 nm to the APC (acceptor) at 665 nm. A potential NRF2 inhibitor will cause a reduction in the TR-FRET signal by interfering with the binding of Keap1 to NRF2. Ten nanoliters of 100× compound dose response curves (serial 3-fold dilutions) in DMSO are stamped using an Echo liquid handling system (Labcyte) into 384-well, low volume, black assay plates (Greiner, #784076), with DMSO in columns 6 and 18. An additional 90 nl DMSO is added to each well, to bring the total volume to 100 nl per well. The top concentration of compound is located in columns 1 and 13, with the serial dilutions going across the row. All reagents are diluted in assay buffer (50 mM Tris, pH 8.0, 5 mM MgCl2, 100 mM NaCl, 0.005% BSA, 1 mM DTT, and 2 mM CHAPS. The BSA, DTT, and CHAPS are added to the assay buffer on the day of assay. […] Wells in column 18 receive 5 ul of assay buffer instead. Plates are centrifuged at 500 rpm for 1 minute, covered with a plate lid, and incubated at 37° C. for 2.25 hours. Plates are then removed from the incubator and allowed to cool to RT for 15 minutes. Five microliters of 2.5 nM biotin-NRF2 protein is then added to all wells of the plates and the plates are spun at 500 rpm for 1 minute, followed by incubating at 4° C. for 1.25 hours. The plates are then allowed to warm to RT for 15 minutes, followed by the addition of 10 ul of detection mix (1 nM Streptavidin Eu+W1024 and 5 ug/ml mouse anti-DYKDDDDK IgG conjugated to SureLight APC antibody; both from Columbia Biosciences) to all wells. Plates are spun at 500 rpm for 1 minute, incubated for 1 hour at RT, and read on an Envision plate reader using a 320 nm excitation filter and 615 nm and 665 nm emission filters. […] Data analysis is handled using the software package Abase XE (Surrey, United Kingdom). […] For calculation of pIC50s, Abase XE uses a four parameter equation. pIC50 is the negative log of the IC50.

Compound | IC50 [1] | IC50 [3] | EC50 ([2]; Homo sapiens) | EC50 ([2]; Homo sapiens, BEAS-2B, 48 h) | EC50 [2]
C[C@H](Oc1cccc(-c2cccc(-n3ncc(C(=O)O)c3[C@@H]3C[C@H]3CCCO)c2)c1)C1CCCCC1 (racemic) [Example 102, 1-(3′-((S)-1-Cyclohexylethoxy)-[1,1′-biphenyl]-3-yl)-5-(trans-2-(3-hydroxypropyl)cyclopropyl)-1H-pyrazole-4-carboxylic Acid] | 1000 to 10000 nM | 1000 to 10000 nM | 100 to 1000 nM |  | 
C[C@H](Oc1cccc(-c2cccc(-n3ncc(C(=O)O)c3[C@H]3C[C@@H]3c3cn(C4CCOCC4)nn3)c2)c1)C1CCCCC1 [Example 96] | 1000 to 10000 nM | 100 to 1000 nM | 100 to 1000 nM |  | 
1-(3′-((1-Ethyl-2,3-dihydro-1H-benzo[e][1,4]diazepin-4(5H)-yl)methyl)-[1,1′-biphenyl]-3-yl)-5-((1,2-trans)-2-(1-methyl-1H-1,2,3-triazol-4-yl)cyclopropyl)-1H-pyrazole-4-carboxylic Acid [Example 127] | 10 to 100 nM | 10 to 100 nM |  |  | 100 to 1000 nM
C[C@H]1Cc2ccc(Br)cc2S(=O)(=O)N(Cc2cccc(-c3cccc(-n4ncc(C(=O)O)c4[C@@H]4C[C@H]4c4cn(C)nn4)c3)c2F)C1 [Example 131, 1-(3′-(((S)-8-Bromo-4-methyl-1,1-dioxido-4,5-dihydrobenzo[f][1,2]thiazepin-2(3H)-yl)methyl)-2′-fluoro-[1,1′-biphenyl]-3-yl)-5-((1R,2R)-2-(1-methyl-1H-1,2,3-triazol-4-yl)cyclopropyl)-1H-pyrazole-4-carboxylic acid] | 10 to 100 nM | < 10 nM | 100 to 1000 nM |  | 
C[C@H](Oc1cccc(-c2cccc(-n3ncc(C(=O)O)c3[C@@H]3C[C@H]3c3cn(C4CNC4)nn3)c2)c1)C1CCCCC1 (racemic) [Example 85, 5-(trans-2-(1-(Azetidin-3-yl)-1H-1,2,3-triazol-4-yl)cyclopropyl)-1-(3′-((S)-1-cyclohexylethoxy)-[1,1′-biphenyl]-3-yl)-1H-pyrazole-4-carboxylic Acid] | 10 to 100 nM | 10 to 100 nM | 100 to 1000 nM |  | 
C[C@H](Oc1cccc(-c2cccc(-n3ncc(C(=O)O)c3[C@@H]3C[C@H]3c3cn(C4CCC4)nn3)c2)c1)C1CCCCC1 (racemic) [Example 78, 5-(trans-2-(1-Cyclobutyl-1H-1,2,3-triazol-4-yl)cyclopropyl)-1-(3′-((S)-1-cyclohexylethoxy)-[1,1′-biphenyl]-3-yl)-1H-pyrazole-4-carboxylic acid] | 10 to 100 nM | 10 to 100 nM | 1 to 10 nM |  | 

Continued, in another order:

IC50 [1] | IC50 [3] | Compound | EC50 ([2]; Homo sapiens) | EC50 ([2]; Homo sapiens, BEAS-2B, 48 h) | EC50 [2]
10 to 100 nM | < 10 nM | CCN1CCN(Cc2cccc(-c3cccc(-n4ncc(C(=O)O)c4[C@@H]4C[C@H]4c4cn(C)nn4)c3)c2)S(=O)(=O)c2ccccc21 [Example 139, 1-(3′-((5-Ethyl-1,1-dioxido-4,5-dihydrobenzo[f][1,2,5]thiadiazepin-2(3H)-yl)methyl)-[1,1′-biphenyl]-3-yl)-5-((1R, 2R)-2-(1-methyl-1H-1,2,3-triazol-4-yl)cyclopropyl)-1H-pyrazole-4-carboxylic acid] | 1000 to 10000 nM |  | 
10 to 100 nM | < 10 nM | CC[C@@H]1CN(C(=O)c2cccc(-c3cccc(-n4ncc(C(=O)O)c4[C@@H]4C[C@H]4c4cn(C)nn4)c3)c2)Cc2ccccc2O1 [Example 257] | 1000 to 10000 nM |  | 
10 to 100 nM | < 10 nM | CCC[C@@H]1CCCCN1C(=O)c1cccc(-c2cccc(-n3ncc(C(=O)O)c3[C@H]3C[C@@H]3c3cn(C(C)C)nn3)c2)c1 (racemic) [Example 200] |  | 100 to 1000 nM | 
10 to 100 nM | 10 to 100 nM | CCC(Oc1cccc(-c2cccc(-n3ncc(C(=O)O)c3[C@H]3C[C@@H]3c3cn(C)nn3)c2)c1)C1CCCCC1 (mixture of isomers) [Example 242] | 10 to 100 nM |  | 
10 to 100 nM | < 10 nM | CC[C@H]1c2ccccc2OC(C)(C)CN1Cc1cccc(-c2cccc(-n3ncc(C(=O)O)c3[C@@H]3C[C@H]3c3cn(C)nn3)c2)c1 (single isomer, unassigned; isomer 1) [Example 124] | 10 to 100 nM |  | 
100 to 1000 nM | 10 to 100 nM | C[C@@H](Oc1cccc(-c2cccc(-n3ncc(C(=O)O)c3[C@@H]3C[C@H]3c3cn(C)nn3)c2)c1)C1CCCCC1 [Example 162, 1-(3′-((R)-1-Cyclohexylethoxy)-[1,1′-biphenyl]-3-yl)-5-((1R,2R)-2-(1-methyl-1H-1,2,3-triazol-4-yl)cyclopropyl)-1H-pyrazole-4-carboxylic Acid] |  | 10 to 100 nM | 
